# Experimental data taken from publication PMC8041284, “Tunable Methacrylamides for Covalent Ligand Directed Release Chemistry” (Journal of the American Chemical Society, 2021).
# Target: T1, BTK (Homo sapiens, UniProt Q06187)
# Test: biochemical
# Settings: read-out: BTK inhibition (%), 0.75 uM BTK, […] probe 3l, 15 min preincubation
# T1 sequence (Q06187 402-655 limits assumed): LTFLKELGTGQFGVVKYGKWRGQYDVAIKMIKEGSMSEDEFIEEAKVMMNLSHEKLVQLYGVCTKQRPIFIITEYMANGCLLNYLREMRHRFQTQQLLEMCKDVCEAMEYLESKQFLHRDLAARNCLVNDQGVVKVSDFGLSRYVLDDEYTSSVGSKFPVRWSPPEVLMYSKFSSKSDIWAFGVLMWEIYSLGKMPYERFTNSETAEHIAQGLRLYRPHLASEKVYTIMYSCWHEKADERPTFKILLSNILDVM
row,inhibition at 10 µM [%],Compound
1,48.2,O=c1c(O)c(-c2ccc(O)c(O)c2)oc2cc(O)cc(O)c12 [PCM-0065486]
2,39.7,Cc1cc(C2CCCCC2)n(O)c(=O)c1 [PCM-0086120]
3,5.5,CNCCc1ccccn1 [PCM-0086123]
4,86.9,COc1cc2nccc(Oc3ccc(NC(=O)C4(C(=O)Nc5ccc(F)cc5)CC4)cc3)c2cc1OC [PCM-0094920]
5,85.5,Cc1cc(Nc2cc(N3CCN(C)CC3)nc(/C=C/c3ccccc3)n2)n[nH]1 [PCM-0095056]
6,32.4,COc1cc(Nc2ncc(F)c(Nc3ccc4c(n3)NC(=O)C(C)(C)O4)n2)cc(OC)c1OC [PCM-0095093]
7,84.8,CN(c1ncccc1CNc1nc(Nc2ccc3c(c2)CC(=O)N3)ncc1C(F)(F)F)S(C)(=O)=O [PCM-0095340]
8,29.7,CN1CC[C@H](c2c(O)cc(O)c3c(=O)cc(-c4ccccc4Cl)oc23)[C@H](O)C1 [PCM-0095354]
9,35.8,CN(C)[C@@H]1C(=O)C(C(N)=O)=C(O)[C@@]2(O)C(=O)C3=C(O)c4c(O)cccc4[C@@](C)(O)[C@H]3[C@H](O)[C@@H]12 [PCM-0214652]
10,80.2,Cc1ccc(-n2[nH]c(C)c(N=Nc3cccc(-c4cccc(C(=O)O)c4)c3O)c2=O)cc1C [PCM-0214811]

# Target: T1, BTK
# Test: not given
# Settings: 0.75 uM BTK, […] probe 3l, 15 min preincubation, 10 µM, inhibitor, BTK inhibition (%)
row,BTK inhibition (%),Compound
1,39.3,O=c1c(O)c(-c2ccc(O)c(O)c2)oc2cc(O)cc(O)c12 [PCM-0065486]
2,28,Cc1cc(C2CCCCC2)n(O)c(=O)c1 [PCM-0086120]
3,5.4,CNCCc1ccccn1 [PCM-0086123]
4,123.4,COc1cc2nccc(Oc3ccc(NC(=O)C4(C(=O)Nc5ccc(F)cc5)CC4)cc3)c2cc1OC [PCM-0094920]
5,91,Cc1cc(Nc2cc(N3CCN(C)CC3)nc(/C=C/c3ccccc3)n2)n[nH]1 [PCM-0095056]
6,31.7,COc1cc(Nc2ncc(F)c(Nc3ccc4c(n3)NC(=O)C(C)(C)O4)n2)cc(OC)c1OC [PCM-0095093]
7,78.6,CN(c1ncccc1CNc1nc(Nc2ccc3c(c2)CC(=O)N3)ncc1C(F)(F)F)S(C)(=O)=O [PCM-0095340]
8,17.2,CN1CC[C@H](c2c(O)cc(O)c3c(=O)cc(-c4ccccc4Cl)oc23)[C@H](O)C1 [PCM-0095354]
9,33.5,CN(C)[C@@H]1C(=O)C(C(N)=O)=C(O)[C@@]2(O)C(=O)C3=C(O)c4c(O)cccc4[C@@](C)(O)[C@H]3[C@H](O)[C@@H]12 [PCM-0214652]
10,77,Cc1ccc(-n2[nH]c(C)c(N=Nc3cccc(-c4cccc(C(=O)O)c4)c3O)c2=O)cc1C [PCM-0214811]
11,13.9,C/C(=C\C(=O)OCCCCCCCCC(=O)O)C[C@@H]1OC[C@H](C[C@@H]2O[C@H]2[C@@H](C)[C@H](C)O)[C@@H](O)[C@H]1O [PCM-0215997]
12,-11.6,COc1cc(NS(=O)(=O)c2ccc(N)cc2)nc(OC)n1 [PCM-0216005]
13,11.7,Cc1cc(C)nc(NS(=O)(=O)c2ccc(N)cc2)n1 [PCM-0216008]
14,4.3,O=C(O)O [PCM-0216036]
15,0,C=C[C@]1(C)C[C@@H](OC(=O)CSCCN(CC)CC)[C@]2(C)[C@H](C)CC[C@]3(CCC(=O)[C@H]32)[C@@H](C)[C@@H]1O [PCM-0216045]
16,-39.1,C[C@@H]1O[C@@H]1P(=O)(O)O [PCM-0216062]
17,11,C=C1[C@H](CO)[C@@H](O)C[C@@H]1n1cnc2c(=O)[nH]c(N)nc21 [PCM-0216093]
18,-12.4,CN1[C@@H]2CC[C@H]1CC(OC(=O)c1c[nH]c3ccccc13)C2 (stereo partly drawn) [PCM-0216191]
19,0.8,CO/N=C(\C(=O)N[C@@H]1C(=O)N2C(C(=O)O)=C(CSC(=O)c3ccco3)CS[C@H]12)c1csc(N)n1 [PCM-0216235]
20,-6.2,O=C(O)O [PCM-0216262]
21,10,C/C=C(/C)C(=O)O[C@H]1[C@@H](OC(C)=O)c2c(ccc3ccc(=O)oc23)OC1(C)C [PCM-0216298]
22,-14.7,C/C=C(/C)C(=O)O[C@H]1[C@@H](OC(C)=O)c2c(ccc3ccc(=O)oc23)OC1(C)C [PCM-0216546]
23,2.3,CCC(=O)NS(=O)(=O)c1ccc(-c2c(-c3ccccc3)noc2C)cc1 [PCM-0216557]
24,6.9,COc1ccc(C[C@@H](C)NC[C@H](O)c2ccc(O)c(NC=O)c2)cc1 [PCM-0216637]
25,11.7,CC[C@H]1OC(=O)[C@H](C)[C@@H](O[C@H]2C[C@@](C)(OC)[C@@H](O)[C@H](C)O2)[C@H](C)[C@@H](O[C@@H]2O[C@H](C)C[C@H](N(C)C)[C@H]2O)[C@](C)(O)C[C@@H](C)CN(C)[C@H](C)[C@@H](O)[C@]1(C)O [PCM-0216649]

# Same assay, conditions: 0.75 uM BTK, […] probe 3l, 15 min preincubation; 10 µM; inhibitor
row,Compound,BTK inhibition (%)
1,CCNc1nc(Cl)nc(NC(C)C)n1 [PCM-0215964],3.9
2,COc1ccc(C=O)cc1 [PCM-0216000],17
3,CC(C)c1ccc(C=O)cc1 [PCM-0216001],-18.5
4,O=C(Nc1ccc(Oc2ccc(Cl)cc2)c(Cl)c1)c1cc(I)cc(I)c1O [PCM-0216018],37.1
5,c1c2c(cc3c1OCO3)-c1cc3ccc4c(c3c[n+]1CC2)OCO4 [PCM-0216022],-46.8
6,COC(=O)c1ccccc1C(=O)OC [PCM-0216149],-9.3
7,ClC(Cl)=C(c1ccc(Cl)cc1)c1ccc(Cl)cc1 [PCM-0216164],10.8
8,c1cc2c(cc1[C@H]1OC[C@H]3[C@@H]1CO[C@H]3c1ccc3c(c1)OCO3)OCO2 [PCM-0216178],29.3
9,C[C@H]1CC[C@]2(NC1)O[C@H]1C[C@H]3[C@@H]4CC[C@H]5C[C@@H](O)CC[C@]5(C)[C@H]4CC[C@]3(C)[C@H]1[C@@H]2C [PCM-0216325],13.9
10,CC1=C[C@]23C(=O)[C@@H](C=C(CO)[C@@H](O)[C@]2(O)[C@H]1O)[C@H]1[C@@H](C[C@H]3C)C1(C)C [PCM-0216393],-3.1
11,COc1cc([C@H]2OC[C@@H]3[C@@H]2CO[C@H]3c2cc(OC)c(O[C@@H]3O[C@H](CO)[C@@H](O)[C@H](O)[C@H]3O)c(OC)c2)cc(OC)c1O[C@@H]1O[C@H](CO)[C@@H](O)[C@H](O)[C@H]1O [PCM-0216398],-10
12,C1CCN2C[C@H]3C[C@H](CN4CCCC[C@@H]34)[C@H]2C1 [PCM-0216422],6.9
13,O=c1ccc2cc3ccoc3c(O)c2o1 [PCM-0216446],-6.2
14,O=C(NC(=O)c1c(F)cccc1F)Nc1ccc(OC(F)(F)C(F)OC(F)(F)F)c(Cl)c1 (stereo not drawn) [PCM-0216580],22.4
15,CCCCC(C#N)(Cn1cncn1)c1ccc(Cl)cc1 (stereo not drawn) [PCM-0216598],3.1
16,CN1C2CC(OC(=O)C(CO)c3ccccc3)CC1C(O)C2 (stereo not drawn) [PCM-0216645],6.9

# Same assay, conditions: 10 µM; inhibitor
row,Compound,BTK inhibition (%)
1,COP(=O)(OC)SCn1c(=O)oc2cc(Cl)cnc21 [PCM-0215999],-2.3
2,O=c1ccc2c(O)c3ccoc3cc2o1 [PCM-0216332],-11.6
3,C/C=C\c1cc(OC)c(OC)cc1OC [PCM-0216406],-3.9
4,CC(C)C1=CC(=O)[C@@](C)([C@H]2[C@H](O)C[C@@]3(C)[C@@H]4CC=C5[C@@H](CC[C@@H](O[C@@H]6OC[C@@H](O)[C@H](O)[C@H]6O[C@@H]6O[C@@H](C)[C@H](O)[C@@H](O)[C@H]6O)C5(C)C)[C@]4(C)C(=O)C[C@]23C)O1 [PCM-0216419],2.3
5,C[C@H]1CCC2N(C1)C[C@H]1C3CC4[C@@H](CC(=O)C5C[C@@H](O)CC[C@@]54C)C3CCC1[C@]2(C)O (stereo partly drawn) [PCM-0216425],-17.8
6,C[C@H]1CC[C@@H]2N(C1)C[C@H]1[C@@H]3C[C@H]4[C@@H](CC(=O)[C@H]5C[C@@H](O)CC[C@@]54C)[C@@H]3CC[C@H]1[C@]2(C)O [PCM-0216485],-13.9
7,C[C@H]1CC[C@@H]2N(C1)C[C@H]1[C@@H]3C[C@H]4[C@@H](C[C@H](O)[C@H]5C[C@@H](O)CC[C@@]54C)[C@@H]3CC[C@@H]1[C@]2(C)O [PCM-0216522],-15.4
8,C=C[C@]12CN(C)[C@@H]3[C@H]4CO[C@H](C[C@H]41)[C@]1(C(=O)Nc4ccccc41)[C@@H]32 [PCM-0216528],-0.8
9,C[C@H]1CCCC(=O)CCC/C=C/c2cc(O)cc(O)c2C(=O)O1 [PCM-0216639],10.8
